According to ChEMBL document CHEMBL5055672, “Design, Synthesis, Biological Evaluation, and Computational Studies of Novel Fluorinated Candidates as PI3K Inhibitors: Targeting Fluorophilic Binding Sites” (J Med Chem, 2021):

Columns and labels:
[1] = test system: MCF-10A; test: Cytotoxicity against human MCF10A cells assessed as inhibition of cell growth incubated for 48 hrs by MTT assay; format: cell-based
[2] = test system: HOP-92; test: Cytotoxicity against human HOP-92 cells assessed as growth inhibition at 10 uM after 48 hrs by sulforhodamine B assay; format: functional; conditions: read-out: GI
[3] = Cytotoxicity against human Hs 578T cells assessed as growth inhibition at 10 uM after 48 hrs by sulforhodamine B assay; format: functional; conditions: read-out: GI
[4] = test system: U-251; test: Cytotoxicity against human U-251 cells assessed as growth inhibition at 10 uM after 48 hrs by sulforhodamine B assay; format: functional; conditions: read-out: GI
[5] = test system: MCF7; test: Induction of cell cycle arrest in human MCF7 cells assessed as accumulation of cells at G phase at IC50 concentration by Propidium iodide staining based flow cytometric analysis (reference value: 1.76%); format: functional
[6] = test system: UACC-62; test: Cytotoxicity against human UACC-62 cells assessed as growth inhibition at 10 uM after 48 hrs by sulforhodamine B assay; format: functional; conditions: read-out: GI
[7] = test system: SF-268; test: Cytotoxicity against human SF-268 cells assessed as growth inhibition at 10 uM after 48 hrs by sulforhodamine B assay; format: functional; conditions: read-out: GI
[8] = test system: SF-295; test: Cytotoxicity against human SF-295 cells assessed as growth inhibition at 10 uM after 48 hrs by sulforhodamine B assay; format: functional; conditions: read-out: GI
[9] = test system: CCRF-CEM; test: Cytotoxicity against human CCRF-CEM cells assessed as growth inhibition at 10 uM after 48 hrs by sulforhodamine B assay; format: functional; conditions: read-out: GI
[10] = test system: HOP-62; test: Cytotoxicity against human HOP-62 cells assessed as growth inhibition at 10 uM after 48 hrs by sulforhodamine B assay; format: functional; conditions: read-out: GI
[11] = test system: MOLT-4; test: Cytotoxicity against human MOLT-4 cells assessed as growth inhibition at 10 uM after 48 hrs by sulforhodamine B assay; format: functional; conditions: read-out: GI
[12] = test system: MCF7; test: Induction of apoptosis in human MCF7 cells assessed as necrotic cells at 13.30 uM after 48 hrs by annexin V-FITC/propidium iodide staining based flow cytometric analysis (reference value: 1.26%); format: functional; conditions: dose 13.3 µM
[13] = target: Phosphatidylinositol 4,5-bisphosphate 3-kinase catalytic subunit alpha isoform (Homo sapiens, UniProt P42336); test: Inhibition of PI3Kalpha (unknown origin) using PIP2 as substrate preincubated for 10 mins followed by substrate addition and measured after 1 hr by ELISA
[14] = test system: K562; test: Cytotoxicity against human K562 cells assessed as growth inhibition at 10 uM after 48 hrs by sulforhodamine B assay; format: functional; conditions: read-out: GI
[15] = test system: T47D; test: Cytotoxicity against human T47D cells assessed as growth inhibition at 10 uM after 48 hrs by sulforhodamine B assay; format: functional; conditions: read-out: GI
[16] = test system: SN12C; test: Cytotoxicity against human SN12C cells assessed as growth inhibition at 10 uM after 48 hrs by sulforhodamine B assay; format: functional; conditions: read-out: GI

Phosphatidylinositol 4,5-bisphosphate 3-kinase catalytic subunit alpha isoform, sequence (P42336 whole entry, canonical isoform): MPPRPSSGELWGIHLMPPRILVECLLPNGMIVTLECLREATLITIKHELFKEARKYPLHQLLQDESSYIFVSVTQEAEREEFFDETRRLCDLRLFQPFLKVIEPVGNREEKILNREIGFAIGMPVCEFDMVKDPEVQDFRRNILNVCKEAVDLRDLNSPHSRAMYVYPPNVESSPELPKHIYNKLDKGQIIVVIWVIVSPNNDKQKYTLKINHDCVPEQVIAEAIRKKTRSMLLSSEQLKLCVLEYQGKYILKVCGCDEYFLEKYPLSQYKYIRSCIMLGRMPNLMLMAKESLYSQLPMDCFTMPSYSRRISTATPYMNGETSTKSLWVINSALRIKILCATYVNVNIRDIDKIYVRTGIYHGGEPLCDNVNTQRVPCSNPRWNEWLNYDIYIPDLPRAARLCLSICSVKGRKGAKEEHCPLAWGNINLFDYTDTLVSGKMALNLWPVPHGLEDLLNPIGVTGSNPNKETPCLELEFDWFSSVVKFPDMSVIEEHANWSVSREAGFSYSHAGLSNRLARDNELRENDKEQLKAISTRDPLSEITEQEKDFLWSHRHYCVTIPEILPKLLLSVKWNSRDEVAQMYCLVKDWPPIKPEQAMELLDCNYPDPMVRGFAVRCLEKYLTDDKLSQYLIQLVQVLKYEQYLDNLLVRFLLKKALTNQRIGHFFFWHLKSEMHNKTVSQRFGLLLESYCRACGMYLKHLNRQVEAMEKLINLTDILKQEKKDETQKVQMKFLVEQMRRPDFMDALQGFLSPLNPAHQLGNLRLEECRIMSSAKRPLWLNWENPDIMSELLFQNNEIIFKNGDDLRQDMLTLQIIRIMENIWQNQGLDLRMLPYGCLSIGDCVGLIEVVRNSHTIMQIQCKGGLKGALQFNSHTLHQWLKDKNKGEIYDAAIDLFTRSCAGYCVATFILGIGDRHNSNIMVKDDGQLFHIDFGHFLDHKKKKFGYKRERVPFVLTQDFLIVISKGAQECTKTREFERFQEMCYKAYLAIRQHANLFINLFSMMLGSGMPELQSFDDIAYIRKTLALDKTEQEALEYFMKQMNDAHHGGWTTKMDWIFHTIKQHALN

COC(=O)/C=C1\S/C(=N\N=C\c2ccc(OCC(F)(F)F)cc2)N(c2ccccc2)C1=O
IC50 [1]: 24.2 µM
inhibition of growth at 10 µM [2]: 20.1%
inhibition of growth at 10 µM [3]: 43%
inhibition of growth at 10 µM [4]: 23.1%
Activity [5]: 19.52%
inhibition of growth at 10 µM [6]: 18.9%
inhibition of growth at 10 µM [7]: 11.8%
inhibition of growth at 10 µM [8]: 13.2%
inhibition of growth at 10 µM [9]: 13.5%
inhibition of growth at 10 µM [10]: 31.5%
inhibition of growth at 10 µM [11]: 13.4%
Activity [12]: 7.39%
IC50 [13]: 77.5 µM
inhibition of growth at 10 µM [14]: 25.7%
inhibition of growth at 10 µM [15]: 14.5%
inhibition of growth at 10 µM [16]: 28.6%
